# Biological target: T1, bacteriophage T4 DNA polymerase (Enterobacteria phage T4, UniProt P04415)
# T1 construct: made in house
# T1 sequence (P04415 1-898): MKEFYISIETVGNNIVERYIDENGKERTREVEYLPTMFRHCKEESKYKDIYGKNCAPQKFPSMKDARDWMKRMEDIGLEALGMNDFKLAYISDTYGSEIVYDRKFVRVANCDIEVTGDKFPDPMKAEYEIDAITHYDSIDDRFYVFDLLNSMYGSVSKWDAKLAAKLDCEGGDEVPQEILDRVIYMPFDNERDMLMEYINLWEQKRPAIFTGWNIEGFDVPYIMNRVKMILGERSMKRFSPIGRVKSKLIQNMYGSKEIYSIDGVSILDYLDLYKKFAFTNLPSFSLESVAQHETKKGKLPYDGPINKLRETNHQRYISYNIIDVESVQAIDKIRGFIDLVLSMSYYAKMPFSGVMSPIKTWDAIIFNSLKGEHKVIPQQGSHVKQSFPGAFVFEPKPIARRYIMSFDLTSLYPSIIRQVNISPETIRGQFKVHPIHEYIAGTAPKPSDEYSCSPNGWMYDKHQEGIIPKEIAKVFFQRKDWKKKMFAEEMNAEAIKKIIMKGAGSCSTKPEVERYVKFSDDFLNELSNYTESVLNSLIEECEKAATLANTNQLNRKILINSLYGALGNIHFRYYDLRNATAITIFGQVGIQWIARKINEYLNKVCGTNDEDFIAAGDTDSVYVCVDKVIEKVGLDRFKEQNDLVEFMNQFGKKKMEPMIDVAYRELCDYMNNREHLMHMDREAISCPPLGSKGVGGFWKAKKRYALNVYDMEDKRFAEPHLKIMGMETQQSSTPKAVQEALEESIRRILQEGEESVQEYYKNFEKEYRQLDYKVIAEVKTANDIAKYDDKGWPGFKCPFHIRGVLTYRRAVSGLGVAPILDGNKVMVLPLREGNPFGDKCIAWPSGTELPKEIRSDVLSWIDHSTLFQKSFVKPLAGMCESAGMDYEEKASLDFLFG
# Experiment: Counter-screen against bacteriophage T4 DNA polymerase
# Format: biochemical
# Settings: for % inhibition T4 10' 2.5 / % inhibition T4 10' 5 / % inhibition T4 10' 10 / % inhibition T4 10' 20 / % inhibition T4 10' 40 / % inhibition T4 10' 80: read at 10'; for % inhibition T4 70' 2.5 / % inhibition T4 70' 5 / % inhibition T4 70' 10 / % inhibition T4 70' 20 / % inhibition T4 70' 40 / % inhibition T4 70' 80: read at 70'; for % inhibition T4 130' 2.5 / % inhibition T4 130' 5 / % inhibition T4 130' 10 / % inhibition T4 130' 20 / % inhibition T4 130' 40 / % inhibition T4 130' 80: read at 130'; for % inhibition T4 40' 2.5 / % inhibition T4 40' 5 / % inhibition T4 40' 10 / % inhibition T4 40' 20 / % inhibition T4 40' 40 / % inhibition T4 40' 80: read at 40'; for % inhibition T4 90' 2.5 / % inhibition T4 90' 5 / % inhibition T4 90' 10 / % inhibition T4 90' 20 / % inhibition T4 90' 40 / % inhibition T4 90' 80: read at 90'; for % inhibition T4 180' 2.5 / % inhibition T4 180' 5 / % inhibition T4 180' 10 / % inhibition T4 180' 20 / % inhibition T4 180' 40 / % inhibition T4 180' 80: read at 180'
# Summary of the method: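 Purified T4 DNA polymerase, a B-family enzyme, served as the counter-screen enzyme. Compounds were tested in dose-response format and IC50 values were derived.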
smiles,measurement,setting,value
Cc1cccc(-c2noc(C(=O)NNC(=O)C(Cl)(Cl)Cl)n2)c1 [KU0266208],% inhibition T4 10' 2.5,"DRC-1, concentration 2.5",1.001%
same,% inhibition T4 10' 5,"DRC-1, concentration 5",-2.3946%
same,% inhibition T4 10' 10,"DRC-1, concentration 10",2.959%
same,% inhibition T4 10' 20,"DRC-1, concentration 20",3.222%
same,% inhibition T4 10' 40,"DRC-1, concentration 40",8.397%
same,% inhibition T4 10' 80,"DRC-1, concentration 80",7.879%
same,% inhibition T4 70' 2.5,"DRC-1, concentration 2.5",1.555%
same,% inhibition T4 70' 5,"DRC-1, concentration 5",-1.004%
same,% inhibition T4 70' 10,"DRC-1, concentration 10",1.596%
same,% inhibition T4 70' 20,"DRC-1, concentration 20",0.3208%
same,% inhibition T4 70' 40,"DRC-1, concentration 40",4.827%
same,% inhibition T4 70' 80,"DRC-1, concentration 80",4.906%
same,% inhibition T4 130' 2.5,"DRC-1, concentration 2.5",-1.03%
same,% inhibition T4 130' 5,"DRC-1, concentration 5",-3.982%
same,% inhibition T4 130' 10,"DRC-1, concentration 10",-1.107%
same,% inhibition T4 130' 20,"DRC-1, concentration 20",-3.27%
same,% inhibition T4 130' 40,"DRC-1, concentration 40",2.252%
same,% inhibition T4 130' 80,"DRC-1, concentration 80",3.008%
same,% inhibition T4 10' 2.5,"DRC-2, concentration 2.5",7%
same,% inhibition T4 10' 5,"DRC-2, concentration 5",-1.26%
same,% inhibition T4 10' 10,"DRC-2, concentration 10",-5%
same,% inhibition T4 10' 20,"DRC-2, concentration 20",-8%
same,% inhibition T4 10' 40,"DRC-2, concentration 40",-12%
same,% inhibition T4 10' 80,"DRC-2, concentration 80",-4.34%
same,% inhibition T4 40' 2.5,"DRC-2, concentration 2.5",7%
same,% inhibition T4 40' 5,"DRC-2, concentration 5",-1.26%
same,% inhibition T4 40' 10,"DRC-2, concentration 10",-5%
same,% inhibition T4 40' 20,"DRC-2, concentration 20",-8%
same,% inhibition T4 40' 40,"DRC-2, concentration 40",-12%
same,% inhibition T4 40' 80,"DRC-2, concentration 80",-4.34%
same,% inhibition T4 90' 2.5,"DRC-2, concentration 2.5",7%
same,% inhibition T4 90' 5,"DRC-2, concentration 5",-1.21%
same,% inhibition T4 90' 10,"DRC-2, concentration 10",-5%
same,% inhibition T4 90' 20,"DRC-2, concentration 20",-8%
same,% inhibition T4 90' 40,"DRC-2, concentration 40",-10%
same,% inhibition T4 90' 80,"DRC-2, concentration 80",-1.44%
same,% inhibition T4 180' 2.5,"DRC-2, concentration 2.5",1.78%
same,% inhibition T4 180' 5,"DRC-2, concentration 5",-5.37%
same,% inhibition T4 180' 10,"DRC-2, concentration 10",-9%
same,% inhibition T4 180' 20,"DRC-2, concentration 20",-11%
same,% inhibition T4 180' 40,"DRC-2, concentration 40",-9%
same,% inhibition T4 180' 80,"DRC-2, concentration 80",0.715%
CC(=O)Nc1cc(C(=O)c2cccs2)nn(-c2ccc(Cl)cc2)c1=O [KU0267905],% inhibition T4 10' 2.5,"DRC-1, concentration 2.5",-2.1822%
same,% inhibition T4 10' 5,"DRC-1, concentration 5",-1.511%
same,% inhibition T4 10' 10,"DRC-1, concentration 10",8.968%
same,% inhibition T4 10' 20,"DRC-1, concentration 20",21.6077%
same,% inhibition T4 10' 40,"DRC-1, concentration 40",20.7445%
same,% inhibition T4 10' 80,"DRC-1, concentration 80",21.8297%
same,% inhibition T4 70' 2.5,"DRC-1, concentration 2.5",-0.6527%
same,% inhibition T4 70' 5,"DRC-1, concentration 5",-1.806%
same,% inhibition T4 70' 10,"DRC-1, concentration 10",6.193%
same,% inhibition T4 70' 20,"DRC-1, concentration 20",12.7493%
same,% inhibition T4 70' 40,"DRC-1, concentration 40",13.4043%
same,% inhibition T4 70' 80,"DRC-1, concentration 80",12.69%
same,% inhibition T4 130' 2.5,"DRC-1, concentration 2.5",-1.3658%
same,% inhibition T4 130' 5,"DRC-1, concentration 5",-4.349%
same,% inhibition T4 130' 10,"DRC-1, concentration 10",2.501%
same,% inhibition T4 130' 20,"DRC-1, concentration 20",8.205%
same,% inhibition T4 130' 40,"DRC-1, concentration 40",8.984%
same,% inhibition T4 130' 80,"DRC-1, concentration 80",8.594%
same,% inhibition T4 10' 2.5,"DRC-2, concentration 2.5",8%
same,% inhibition T4 10' 5,"DRC-2, concentration 5",8.43%
same,% inhibition T4 10' 10,"DRC-2, concentration 10",8%
same,% inhibition T4 10' 20,"DRC-2, concentration 20",1.18%
same,% inhibition T4 10' 40,"DRC-2, concentration 40",7%
same,% inhibition T4 10' 80,"DRC-2, concentration 80",2.64%
same,% inhibition T4 40' 2.5,"DRC-2, concentration 2.5",7%
same,% inhibition T4 40' 5,"DRC-2, concentration 5",7.5%
same,% inhibition T4 40' 10,"DRC-2, concentration 10",6.35%
same,% inhibition T4 40' 20,"DRC-2, concentration 20",0.171%
same,% inhibition T4 40' 40,"DRC-2, concentration 40",4%
same,% inhibition T4 40' 80,"DRC-2, concentration 80",0.303%
same,% inhibition T4 90' 2.5,"DRC-2, concentration 2.5",5%
same,% inhibition T4 90' 5,"DRC-2, concentration 5",5%
same,% inhibition T4 90' 10,"DRC-2, concentration 10",4%
same,% inhibition T4 90' 20,"DRC-2, concentration 20",-2%
same,% inhibition T4 90' 40,"DRC-2, concentration 40",2.26%
same,% inhibition T4 90' 80,"DRC-2, concentration 80",-0.743%
same,% inhibition T4 180' 2.5,"DRC-2, concentration 2.5",0.767%
same,% inhibition T4 180' 5,"DRC-2, concentration 5",0.673%
same,% inhibition T4 180' 10,"DRC-2, concentration 10",0.174%
same,% inhibition T4 180' 20,"DRC-2, concentration 20",-8%
same,% inhibition T4 180' 40,"DRC-2, concentration 40",-2.82%
same,% inhibition T4 180' 80,"DRC-2, concentration 80",-3.56%
"O=C1N=C(Nc2cccc(Cl)c2Cl)S/C1=C\c1ccco1 [Molecule 3, O=C1N=C(S/C/1=C\c1ccco1)Nc1cccc(c1Cl)Cl]",% inhibition T4 10',"DRC-2, concentration 2.5",26%
same,% inhibition T4 10',"DRC-2, concentration 5",29%
same,% inhibition T4 10',"DRC-2, concentration 20",30%
same,% inhibition T4 10',"DRC-2, concentration 40",29%
same,% inhibition T4 10',"DRC-2, concentration 80",13%
same,% inhibition T4 40',"DRC-2, concentration 2.5",26%
same,% inhibition T4 40',"DRC-2, concentration 5",29%
same,% inhibition T4 40',"DRC-2, concentration 20",30%
same,% inhibition T4 40',"DRC-2, concentration 40",29%
same,% inhibition T4 40',"DRC-2, concentration 80",13%
same,% inhibition T4 90',"DRC-2, concentration 5",27%
same,% inhibition T4 90',"DRC-2, concentration 20",30%
same,% inhibition T4 90',"DRC-2, concentration 40",30%
same,% inhibition T4 180',"DRC-2, concentration 10",29%
same,% inhibition T4 180',"DRC-2, concentration 20",27%
same,% inhibition T4 180',"DRC-2, concentration 40",30%
